Measured values published in patent EP0369035A1, “AGENT FOR TREATING PANCREATITIS OR THE LIKE” (priority 1988, dated 1989).

What was measured:
human plasma kallikrein = molecular target: T1, human plasma kallikrein (Homo sapiens, UniProt P03952); assay: Anti-plasma kallikrein activity: inhibition of S-2302 degradation; format: biochemical; conditions: substrate S-2302, 37°C, pH 7.8; read-out: Plasma kallikrein S-2302 (I50)
T1 construct: 50 µl of 0.12 units/ml human plasma kallikrein solution
Method: 2) Assay of anti-plasma kallikrein activity Assay method of inhibition of S-2302 degradation
(§1) The test substance was dissolved in a 0.05 M Tris-HC1 (pH 7.8) buffer to make a total volume of 400 µl, and 50 µl of a 2 mM S-2302 solution was added to the solution. After incubation at 37°C for 5 minutes in an incubator, an addition of 50 µl of 0.12 units/ml human plasma kallikrein solution, and incubation at 37°C for 5 minutes, the reaction was terminated by an addition of 50 µl of 50% acetic acid.

human urokinase = human urokinase (Homo sapiens, UniProt P00749); assay: Anti-urokinase activity: inhibition of S-2444 degradation; format: biochemical; conditions: substrate S-2444, 37°C, pH 8.8; read-out: Urokinase S-2444 (I50)
Method: 3) Assay of anti-urokinase activity Assay method of inhibition of S-2444 degradation
as §1, with “8.8)” for “7.8)”, “1” for “2”, “S-2444” for “S-2302”, “mixture.” for “solution.”, “500” for “0.12”, “urokinase” for “plasma kallikrein”

[1] = tested on: experimental pancreatitis; assay: Effect on experimental pancreatitis (sodium taurochorate + trypsin into the common bile duct), survival ratio; format: in vivo, SD-rats; set-up: Effect on experimental pancreatitis (100 mg/kg p.o.) After 24 hours / Effect on experimental pancreatitis (100 mg/kg p.o.) After 48 hours / Effect of existing control drug on experimental pancreatitis After 24 hours: unit not given here; conditions: survival ratio, 50 μg/kg/min x 80 min, rat
Description: [II] Effect on experimental pancreatitis
SD-rats, body weight of about 200 g were, starved overnight, and 10 to 24 animals were used in one group. Sodium pentobarbital was intraperioneally administered to anesthetize each rat, and then a cannula was inserted to the femoral vein for the administration of the test substance. After abdominal surgery, the bile duct was blocked at a part thereof proximate to the liver, by a clip, a polyethylene tube was inserted to the common bile duct at a part thereof most proximate to the duodenum, and 0.1 ml of solution containing 2 mg sodium taurochorate and 1000 U trypsin dissolved in physiological saline was injected retrogrodely. After removal of the clip and tube, the common bile duct was ligated and the abdomen was closed. Note, the test substance was dissolved in an injective 5% glucose solution, and in the case of a continuous infusion, the solution was administered over 80 minutes starting from 10 minutes before the generation of pancreatitis. In the case of oral administration, the test substance was administered through an oral catheter 30 minutes before the generation of pancreatitis. After 24 hours and 48 hours from the generation of pancreatitis, the survival ratio of the animals was calculated and compared with a control group.

in vivo = conditions: mouse, intravenous, ICR male mice, up-and-down method, read-out: Acute toxicity (LD50)
Method: ICR male mice 5 to 10 weeks old were used. The test substance was dissolved in a 5% dimethylsulfoxide aqueous solution, and the solution was intravenously administered in an amount of 0.1 to 0.2 ml/10 g body weight. An LD50 value was calculated by up-and-down method.

[2] = Measurement of half life in blood; format: in vivo; conditions: rat, iv; administered to the tail vein, SD-rats, plasma, HPLC
Method: [VI] Measurement of half life in blood
SD-rats 6 to 7 weeks old were used. The test substance was dissolved in an injective 5% glucose solution and administered to the tail vein. After the administration, blood samples were periodically obtained from the great vein and placed into heparinized test tubes. Plasma was separated by centrifugation and the test substance was extracted with ethyl acetate. After removal of the solvent, the residue was dissolved in 200 µl of methanol, and analyzed by high performance liquid chromatography. From the change of the concentration of the test substance in blood with time, a half life thereof in blood was calculated.

bovine factor Xa = molecular target: T2, bovine factor Xa (Bos taurus, UniProt P00743); assay: Anti-FXa activity: inhibition of S-2222 degradation; format: biochemical; conditions: Table 3-2, existing control drugs; substrate printed as S-2238; read-out: FXa S-2238 (I50)
T2 construct: 0.05 ml of 0.3 vial/ml bovine factor Xa
T2 sequence (P00743 234-492 limits assumed): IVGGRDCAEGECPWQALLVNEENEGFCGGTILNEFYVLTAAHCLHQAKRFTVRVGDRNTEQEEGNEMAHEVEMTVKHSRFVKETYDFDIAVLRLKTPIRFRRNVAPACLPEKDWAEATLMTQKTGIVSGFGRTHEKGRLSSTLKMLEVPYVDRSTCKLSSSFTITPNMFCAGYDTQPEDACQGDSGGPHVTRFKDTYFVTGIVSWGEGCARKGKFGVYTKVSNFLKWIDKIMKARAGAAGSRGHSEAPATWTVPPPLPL
T2 sequence (P00743 41-180 partner limits assumed): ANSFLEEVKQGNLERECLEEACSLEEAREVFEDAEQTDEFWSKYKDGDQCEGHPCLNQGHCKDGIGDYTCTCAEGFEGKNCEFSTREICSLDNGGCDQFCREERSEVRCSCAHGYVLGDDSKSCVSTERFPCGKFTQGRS

T1 sequence (P03952 391-638 limits assumed): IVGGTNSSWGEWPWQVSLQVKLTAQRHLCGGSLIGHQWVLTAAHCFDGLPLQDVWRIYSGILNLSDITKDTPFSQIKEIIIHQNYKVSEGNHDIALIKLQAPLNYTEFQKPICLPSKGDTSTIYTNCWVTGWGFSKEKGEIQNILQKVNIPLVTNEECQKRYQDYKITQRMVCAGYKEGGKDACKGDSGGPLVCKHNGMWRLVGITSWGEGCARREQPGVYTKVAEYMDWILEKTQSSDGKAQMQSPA
T1 sequence (P03952 20-390 partner limits assumed): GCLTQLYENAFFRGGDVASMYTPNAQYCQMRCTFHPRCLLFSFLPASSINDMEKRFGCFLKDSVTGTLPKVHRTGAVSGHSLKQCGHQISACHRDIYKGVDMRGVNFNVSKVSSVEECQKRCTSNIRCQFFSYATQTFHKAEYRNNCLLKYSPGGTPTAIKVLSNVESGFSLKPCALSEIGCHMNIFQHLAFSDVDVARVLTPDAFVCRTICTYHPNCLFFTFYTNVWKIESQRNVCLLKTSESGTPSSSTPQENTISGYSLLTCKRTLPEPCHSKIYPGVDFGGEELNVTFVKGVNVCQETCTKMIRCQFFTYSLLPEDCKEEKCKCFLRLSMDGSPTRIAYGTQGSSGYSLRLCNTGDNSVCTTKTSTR

For `N=C(N)c1ccc2cc(OC(=O)c3ccc(N=C(N)N)cc3)ccc2c1` [FUT-175, nafamostat mesilate, reference compound], which IC50 (human plasma kallikrein) is on record?
Its IC50 is 80 nM.

And the IC50 (human urokinase)?
Its IC50 is 10 nM.

What about the “Effect of existing control drug on experimental pancreatitis After 24 hours” value [1] of the same compound?
Its value is 33.3.

And the LD50 (in vivo)?
Its LD50 is 24 mg/kg.

And the half-life [2]?
The half-life was 2 to 3 min.

What about the IC50 (bovine factor Xa) of the same compound?
The IC50 was 5800 nM.
